Results taken from patent US7727736B2, “Soluble phospholipids for use in clotting factor assays” (The University of North Carolina at Chapel Hill, priority 2003, dated 2010).

Legend:
factor VIIIa-IXa complex = target: T1, factor VIIIa-IXa complex (Homo sapiens, UniProt P00451+P00740); assay: Activation of factor X by factor IXa and factor VIIIa; format: biochemical; conditions: in the presence of C6PS
T1 construct: 2.5 nM factor IXa and 10 nM factor VIIIa
Method: The rate of activation of factor X by 2.5 nM factor IXa and 10 nM factor VIIIa in the presence of 600 μM C6PS was monitored at different concentrations of factor X (FIG. 13). The KM for this reaction was 66 nM, which is similar to that obtained with 30% PS/PC membranes (45 nM) (Larson et al. (1996) J. Biol. Chem. 271 3869).

plasma = assay: Activated partial thromboplastin time (aPTT) assay; format: biochemical
Method: Activated partial thromboplastin time assays were done using an optical detection method to determine clotting time. Two reaction mixtures were created. Mixture A had kaolin in concentrations ranging from 50 g/L to 500 g/L and either phospholipid vesicles (ranging from 0.67 to 240 μM) or C6PS (ranging from 5 μM to 5250 μM) in buffer of 20 mM HEPES (pH 7.4), 150 mM NaCl. Mixture B was 25 mM calcium chloride in a buffer of 20 mM HEPES (pH 7.4), 150 mM NaCl. Plasma, Mixture A, and Mixture B were all incubated at 37° C. for 3 minutes. Mixture A was added to plasma and incubated for 3 minutes at 37° C. Buffer B was added and the optical density was measured. Clotting was detected as an increase in absorbance.
As expected, lipid vesicles shortened the Kaolin induced clotting time in a dose-dependent fashion by as much as 100 seconds. C6PS gave a dose dependent shortening in the clotting time, but the largest decrease was 13 seconds. We speculated that the Kaolin might interfere with C6PS. Since the purpose of Kaolin is to activate the contact factors of coagulation (high molecular weight kininogen, factor XII, and factor XI), we substituted 30 nM activated factor XI for Kaolin in the assay described above.

[1] = target: T2, factor Xa binding to factor Va2 (Homo sapiens, UniProt P00742+P12259); assay: Prothrombinase assembly monitored by initial rate of thrombin formation (DAPA fluorescence, stopped flow), FVa2; format: biochemical; conditions: in presence of 400 μM C6PS
T2 construct: Human prothrombin and factor Xa; tissue Hematologic Technologies Inc. (factor Xa only); factor Xa purchased
T2 sequence (P00742 41-179 limits assumed): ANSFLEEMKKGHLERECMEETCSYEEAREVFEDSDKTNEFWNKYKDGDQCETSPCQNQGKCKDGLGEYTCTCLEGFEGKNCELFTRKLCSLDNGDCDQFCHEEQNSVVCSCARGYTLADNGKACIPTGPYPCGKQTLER
T2 sequence (P00742 235-488 limits assumed): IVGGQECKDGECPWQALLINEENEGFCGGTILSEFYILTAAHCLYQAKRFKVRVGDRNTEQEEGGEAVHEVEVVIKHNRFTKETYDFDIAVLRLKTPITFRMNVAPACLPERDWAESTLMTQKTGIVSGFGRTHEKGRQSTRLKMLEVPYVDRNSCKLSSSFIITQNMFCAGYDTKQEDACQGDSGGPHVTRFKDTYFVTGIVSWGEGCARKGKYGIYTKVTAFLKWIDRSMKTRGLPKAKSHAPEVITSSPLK
T2 sequence (P12259 29-737 limits assumed): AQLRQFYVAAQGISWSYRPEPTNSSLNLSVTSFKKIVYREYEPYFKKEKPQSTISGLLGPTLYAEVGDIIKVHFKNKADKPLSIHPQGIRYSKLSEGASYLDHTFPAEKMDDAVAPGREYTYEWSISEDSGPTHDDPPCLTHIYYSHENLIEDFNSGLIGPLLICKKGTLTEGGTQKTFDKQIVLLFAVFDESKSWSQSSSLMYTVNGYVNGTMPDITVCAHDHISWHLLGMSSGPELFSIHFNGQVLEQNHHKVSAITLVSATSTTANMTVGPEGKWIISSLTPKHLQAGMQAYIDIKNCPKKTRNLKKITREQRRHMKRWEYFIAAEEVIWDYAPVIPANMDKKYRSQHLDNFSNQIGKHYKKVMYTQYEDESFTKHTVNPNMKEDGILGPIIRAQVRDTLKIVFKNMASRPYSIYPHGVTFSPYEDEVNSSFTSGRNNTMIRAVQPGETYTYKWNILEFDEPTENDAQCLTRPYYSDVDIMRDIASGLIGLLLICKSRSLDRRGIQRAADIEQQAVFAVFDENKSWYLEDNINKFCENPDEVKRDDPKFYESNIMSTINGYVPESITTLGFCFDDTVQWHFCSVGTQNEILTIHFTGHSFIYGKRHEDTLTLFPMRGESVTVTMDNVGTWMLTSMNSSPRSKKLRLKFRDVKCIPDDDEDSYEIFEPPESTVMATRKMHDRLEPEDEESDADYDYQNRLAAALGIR
T2 sequence (P12259 1574-2224 limits assumed): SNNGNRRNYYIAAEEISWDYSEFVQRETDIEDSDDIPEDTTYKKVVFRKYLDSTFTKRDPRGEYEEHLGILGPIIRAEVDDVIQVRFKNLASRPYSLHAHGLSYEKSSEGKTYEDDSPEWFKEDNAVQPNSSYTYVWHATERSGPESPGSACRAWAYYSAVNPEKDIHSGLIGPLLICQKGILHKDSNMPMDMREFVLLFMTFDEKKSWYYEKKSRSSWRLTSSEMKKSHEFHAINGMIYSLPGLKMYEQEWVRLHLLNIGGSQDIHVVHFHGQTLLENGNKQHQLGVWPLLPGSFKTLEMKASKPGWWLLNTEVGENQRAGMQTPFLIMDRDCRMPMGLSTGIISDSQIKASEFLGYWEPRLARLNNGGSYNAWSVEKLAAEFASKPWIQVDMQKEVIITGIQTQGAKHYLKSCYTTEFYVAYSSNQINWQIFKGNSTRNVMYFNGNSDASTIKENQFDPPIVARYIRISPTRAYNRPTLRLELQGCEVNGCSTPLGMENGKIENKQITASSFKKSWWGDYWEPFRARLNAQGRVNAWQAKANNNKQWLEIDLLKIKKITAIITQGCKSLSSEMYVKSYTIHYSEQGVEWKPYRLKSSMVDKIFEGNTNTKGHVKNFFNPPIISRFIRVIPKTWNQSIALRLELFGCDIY
Method: The initial rate of thrombin formation was monitored by DAPA fluorescence. Stopped flow fluorescence measurements were performed at 37° C. with final mixing chamber concentrations of 1 μM prothrombin, 5 μM DAPA, 1 nM factor Xa, 400 μM C6PS and various concentrations of factor Va2 (Panel A) or Va1 (Panel B) in 50 mM Tris-HCl (pH 7.5), 150 mM NaCl, 5 mM CaCl2. The initial rates were fit to a single binding site model as described herein to determine the Kd^eff of factor Xa binding to factor Va2 in presence of 400 μM C6PS (2.4±0.3 nM). […] The abrupt appearance of aggregates at 700 μM C6PS defines the critical micelle concentration under these experimental conditions.
Fluorescence Stopped-Flow Measurements. The rates of thrombin formation from either MzIIa or Pre2 (with equimolar fragment 1.2), or of thrombin plus MzIIa formation from human prothrombin, were estimated from the time-dependent fluorescence change of DAPA bound to the activation products. […] The calculation of rates from measurements of initial fluorescence intensity (F0) and intensity at the completion of the reaction (F∞) is well-established (Nesheim and Mann (1983) supra; Wu, et al. (2002) supra).
Initial rates of prothrombin activation by FXa as monitored by DAPA fluorescence are shown in FIG. 2 as a function of added FVa2 (Panel A) and FVa1 (Panel B) in the presence of 400 μM C6PS. […]

factor IXa = target: T3, factor IXa (Homo sapiens, UniProt P00740); assay: Binding of C6PS to Factor IXa detected by intrinsic fluorescence; conditions: 0.20 μM factor IXa, 5 mM calcium, 22° C., single binding site model; read-out: stoichiometric Kd of C6PS binding to factor IXa
T3 construct: intrinsic tryptophan fluorescence of factor IXa
T3 sequence (P00740 47-191 limits assumed): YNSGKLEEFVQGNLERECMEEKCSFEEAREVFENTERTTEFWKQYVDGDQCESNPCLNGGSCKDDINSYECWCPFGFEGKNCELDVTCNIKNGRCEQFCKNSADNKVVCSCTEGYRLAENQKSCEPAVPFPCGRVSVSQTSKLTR
T3 sequence (P00740 227-461 limits assumed): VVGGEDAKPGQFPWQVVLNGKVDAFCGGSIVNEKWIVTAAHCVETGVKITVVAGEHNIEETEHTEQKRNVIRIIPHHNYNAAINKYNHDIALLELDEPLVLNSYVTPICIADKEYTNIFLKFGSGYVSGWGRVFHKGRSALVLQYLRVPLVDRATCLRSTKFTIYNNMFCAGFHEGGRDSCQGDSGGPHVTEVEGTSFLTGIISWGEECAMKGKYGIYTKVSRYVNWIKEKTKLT
Method: Integrated intrinsic fluorescence of 0.20 μM factor IXa in 50 mM Tris, 150 mM NaCl, 5 mM CaCl2, and 0.6% PEG, pH 7.5 was measured as a function of C6PS concentration at 22° C. to follow C6PS binding.

APC = APC (Homo sapiens, UniProt P04070); assay: SPS binding to APC; conditions: other experiments
Sequence of APC (P04070 43-197 limits assumed): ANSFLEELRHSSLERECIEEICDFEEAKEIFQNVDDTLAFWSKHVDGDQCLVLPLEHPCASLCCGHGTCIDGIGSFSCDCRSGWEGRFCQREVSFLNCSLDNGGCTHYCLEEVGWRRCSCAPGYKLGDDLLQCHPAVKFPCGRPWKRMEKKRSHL
Sequence of APC (P04070 212-461 limits assumed): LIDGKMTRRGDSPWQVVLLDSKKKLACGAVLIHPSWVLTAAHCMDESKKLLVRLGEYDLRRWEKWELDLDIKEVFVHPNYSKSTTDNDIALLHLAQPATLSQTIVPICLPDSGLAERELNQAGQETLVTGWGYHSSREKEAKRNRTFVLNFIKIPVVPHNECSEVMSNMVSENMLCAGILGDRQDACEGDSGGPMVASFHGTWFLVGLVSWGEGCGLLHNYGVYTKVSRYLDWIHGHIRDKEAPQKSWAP
Text: Proteolysis at Arg^506 leads to partial inactivation, but proteolysis at Arg^306 is necessary for full inactivation (Kalafatis & Mann (1993) J. Biol. Chemistry 268 27246; Nicolaes et al., (1995) J. Biol. Chemistry (1995) 270 21158). […] The rate of proteolysis of the bond at Arg^306 increased from undetectable to a value of kcat/KM=3-3.5×10^6 M^−1sec^−1, identical to the rate reported with PS-containing membranes.

[2] = CMC of C6PS using ANS as fluorescent probe in the presence of factor IXa; format: physicochemical; conditions: 200 nM factor IXa, 5 mM calcium

T1 sequence (P00740 47-191 limits assumed): as the sequence (P00740 47-191 limits assumed) above
T1 sequence (P00740 227-461 limits assumed): as the sequence (P00740 227-461 limits assumed) above
T1 sequence (P00451 20-391 limits assumed): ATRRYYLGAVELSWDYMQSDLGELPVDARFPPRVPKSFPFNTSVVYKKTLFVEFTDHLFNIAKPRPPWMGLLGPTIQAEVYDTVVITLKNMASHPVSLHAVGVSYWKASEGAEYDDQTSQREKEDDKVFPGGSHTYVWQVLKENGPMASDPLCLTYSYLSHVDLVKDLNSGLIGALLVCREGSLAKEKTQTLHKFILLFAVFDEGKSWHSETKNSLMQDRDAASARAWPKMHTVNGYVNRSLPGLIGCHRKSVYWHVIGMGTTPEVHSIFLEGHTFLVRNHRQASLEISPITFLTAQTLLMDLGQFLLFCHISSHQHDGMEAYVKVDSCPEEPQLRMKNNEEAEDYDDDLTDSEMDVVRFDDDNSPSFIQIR
T1 sequence (P00451 392-759 limits assumed): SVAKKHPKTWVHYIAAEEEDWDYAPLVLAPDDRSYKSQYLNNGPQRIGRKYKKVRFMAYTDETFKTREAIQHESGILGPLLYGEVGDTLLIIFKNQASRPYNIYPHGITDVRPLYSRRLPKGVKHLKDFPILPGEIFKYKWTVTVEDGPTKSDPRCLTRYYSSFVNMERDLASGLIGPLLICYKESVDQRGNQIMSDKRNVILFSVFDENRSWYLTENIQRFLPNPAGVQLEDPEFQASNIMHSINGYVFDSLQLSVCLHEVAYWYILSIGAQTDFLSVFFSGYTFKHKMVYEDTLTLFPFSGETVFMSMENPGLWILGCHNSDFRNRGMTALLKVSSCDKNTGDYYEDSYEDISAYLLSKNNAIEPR
T1 sequence (P00451 1709-2351 limits assumed): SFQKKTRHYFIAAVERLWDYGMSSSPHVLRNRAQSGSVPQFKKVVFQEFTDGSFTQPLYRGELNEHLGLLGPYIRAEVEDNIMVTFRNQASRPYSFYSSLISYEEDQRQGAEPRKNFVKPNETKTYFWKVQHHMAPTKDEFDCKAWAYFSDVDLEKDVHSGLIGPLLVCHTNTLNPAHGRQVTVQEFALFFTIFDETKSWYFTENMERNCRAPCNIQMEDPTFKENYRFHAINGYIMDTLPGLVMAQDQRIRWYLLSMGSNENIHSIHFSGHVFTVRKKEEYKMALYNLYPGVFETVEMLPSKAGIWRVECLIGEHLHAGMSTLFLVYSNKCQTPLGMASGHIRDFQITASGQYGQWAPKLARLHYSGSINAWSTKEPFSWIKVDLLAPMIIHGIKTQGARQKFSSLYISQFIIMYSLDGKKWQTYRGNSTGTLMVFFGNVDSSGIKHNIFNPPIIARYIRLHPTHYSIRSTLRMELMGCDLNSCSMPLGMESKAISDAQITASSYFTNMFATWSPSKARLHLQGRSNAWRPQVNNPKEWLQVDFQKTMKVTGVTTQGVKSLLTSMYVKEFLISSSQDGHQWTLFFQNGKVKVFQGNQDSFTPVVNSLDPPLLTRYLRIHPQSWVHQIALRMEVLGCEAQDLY

CCCCCC(=O)OC[C@H](COP(=O)(O)OC[C@H](N)C(=O)O)OC(=O)CCCCC [C6PS, 1,2-dicaproyl-sn-glycero-3-phospho-L-serine]
fold reduction of KM for factor X activation with the addition of VIIIa (factor VIIIa-IXa complex): 5 fold | maximal shortening of clotting time (plasma; 30 nM activated factor XI substituted for Kaolin): 20 s | largest shortening of the Kaolin induced clotting time (plasma; Kaolin as activator): 13 s | fold tighter FVa2 interaction with FXa than FVa1 [1]: at least 300 fold | Kd (factor IXa): ~1.3 µM | Kd (APC): ~1 µM | CMC of C6PS [2]: 950 µM
